Laboratory results published in US11376229B2, “Method of treating or preventing neurodegeneration” (Reprise Pharmaceuticals, Inc., priority 2011, dated 2022).

Key:
WT EAE mice [1] = assay: EAE clinical disability scores, MOG35-55-immunized mice treated with glibenclamide; assay type: in vivo; conditions: 10 μg daily i.p. from first clinical symptoms (day 8), vs vehicle (DMSO) control, P<0.05
TRPM4 = TRPM4 (Homo sapiens, UniProt Q8TD43); conditions: reported by Damien et al. 2007; Becerra et al. 2011; cited from earlier work
Trpm4−/− EAE mice = assay: EAE clinical disability scores in Trpm4-/- mice treated with glibenclamide; assay type: in vivo; conditions: 10 μg daily i.p. from day 8, vs DMSO control
WT EAE mice [2] = assay: Immunohistochemical count of axons (SMI 31/SMI 32) and neuronal somata (NeuN) in cervical spinal cord of EAE mice; assay type: in vivo; conditions: 30 days post immunization, vs vehicle control

Chain of TRPM4 (Q8TD43 whole entry, species assumed): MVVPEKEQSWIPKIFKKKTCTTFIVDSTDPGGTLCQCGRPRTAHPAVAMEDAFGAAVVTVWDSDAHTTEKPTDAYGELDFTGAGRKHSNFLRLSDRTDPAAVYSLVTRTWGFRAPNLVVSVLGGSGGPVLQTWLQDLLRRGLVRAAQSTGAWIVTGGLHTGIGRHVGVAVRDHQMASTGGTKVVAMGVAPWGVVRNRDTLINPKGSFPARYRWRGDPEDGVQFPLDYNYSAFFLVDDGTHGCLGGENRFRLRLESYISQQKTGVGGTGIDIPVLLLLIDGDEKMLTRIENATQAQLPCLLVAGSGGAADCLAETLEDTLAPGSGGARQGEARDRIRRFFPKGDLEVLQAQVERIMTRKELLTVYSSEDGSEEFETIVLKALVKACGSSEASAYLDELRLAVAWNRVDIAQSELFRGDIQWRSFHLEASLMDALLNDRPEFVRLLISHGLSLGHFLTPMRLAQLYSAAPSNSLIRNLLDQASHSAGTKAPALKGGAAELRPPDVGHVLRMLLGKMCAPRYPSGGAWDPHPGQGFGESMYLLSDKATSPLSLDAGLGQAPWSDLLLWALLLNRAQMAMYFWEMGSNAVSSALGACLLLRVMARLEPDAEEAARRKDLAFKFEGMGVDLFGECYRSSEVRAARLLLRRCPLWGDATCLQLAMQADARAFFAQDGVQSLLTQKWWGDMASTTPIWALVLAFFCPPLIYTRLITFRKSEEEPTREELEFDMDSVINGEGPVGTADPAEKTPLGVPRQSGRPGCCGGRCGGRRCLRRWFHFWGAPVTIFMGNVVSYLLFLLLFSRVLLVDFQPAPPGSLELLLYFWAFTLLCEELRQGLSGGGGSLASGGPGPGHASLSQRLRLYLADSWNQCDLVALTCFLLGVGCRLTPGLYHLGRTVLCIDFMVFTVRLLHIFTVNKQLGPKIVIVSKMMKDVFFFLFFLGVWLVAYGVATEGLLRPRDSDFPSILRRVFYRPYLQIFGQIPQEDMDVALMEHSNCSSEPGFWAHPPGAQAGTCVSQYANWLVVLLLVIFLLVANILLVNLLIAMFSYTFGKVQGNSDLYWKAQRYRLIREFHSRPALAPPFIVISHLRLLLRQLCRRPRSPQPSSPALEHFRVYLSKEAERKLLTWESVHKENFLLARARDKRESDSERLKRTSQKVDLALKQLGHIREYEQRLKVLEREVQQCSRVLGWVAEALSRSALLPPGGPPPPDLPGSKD

For COc1ccc(Cl)cc1C(=O)NCCc1ccc(S(=O)(=O)NC(=O)NC2CCCCC2)cc1 [glibenclamide], the “clinical disability (mean clinical disability score)” value (WT EAE mice [1]) is given as “ameliorated disability”, the TRPM4 inhibition (TRPM4) is given as “effectively inhibit TRPM4” and the “clinical disability (mean clinical disability score)” value (Trpm4−/− EAE mice) is given as “no additional clinical improvement”. The “number of axons in the corticospinal tract” value (WT EAE mice [2]; P<0.01) was “preservation of axons”, the “number of axons in the dorsal column” value (WT EAE mice [2]; P<0.05) was “preservation of axons” and the “neuronal cell body loss in the gray matter of the spinal cord” value (WT EAE mice [2]; did not reach statistical significance) was “slightly diminished”.
